Assay results: patent publication US20210323995A1, “ISOLITHOCHOLIC ACID OR ISOALLOLITHOCHOLIC ACID AND DEUTERATED DERIVATIVES THEREOF FOR PREVENTING AND TREATING CLOSTRIDIUM DIFFICILE-ASSOCIATED DISEASES” (PHENEX PHARMACEUTICALS AG, priority 2018, published 2021)
≈ marks a conversion by molar mass, not a printed value. Read-outs that look alike come from different tables or passages of the source.

How the values were obtained:
[1] = tested on: C. diff. spore germination; settings: reported in WO2010/062369, Table 3, cited from earlier work
[2] = tested on: Clostridium difficile (Clostridioides difficile), Mouse Strain VPI 10463 (ATCC 43255); assay: MIC on Clostridium difficile mouse strain VPI 10463; format: cell-based; settings: ATCC43255, 48 hours, presence/absence of growth, tested 0.015-250 μM
Protocol: Determination of Minimal Inhibitory Concentrations (MICs) of Bile Acid Derivatives on Clostridium difficile (Clostridioides difficile), Mouse Strain VPI 10463 (ATCC 43255)
Concentrations (0.015-250 μM) of test compounds are prepared by serial two-fold dilutions in pre-reduced brain heart infusion (BHI) broth. To each well containing test article, approximately 5×10^5 CFU of bacteria are added and incubated for 48 hours in an anaerobic chamber at 37° C. Following incubation, the MIC of each test article is determined by presence/absence of bacterial growth in each well.

[3] = ALT plasma concentration of mice after 5 days administration; format: in vivo; settings: 500 mg/kg for 5 days, mice (FIG. 1a, 1b); result in words
[4] = tested on: C. diff. strain VPI 10463 (ATCC-43255) infection; assay: Murine model of Clostridium difficile-associated disease: acute model; format: in vivo, C57BL6 female mice
Protocol: Efficacy Evaluation in a Murine Model of Clostridium difficile-Associated Disease: Acute Model
The efficacy of compounds in suppressing C. diff infection was assessed in C57BL6 female mice. Mice were made vulnerable to C. diff. infection by administration of a cocktail of antibiotics (1% glucose, kanamycin (0.5 mg/mL), gentamicin (44 μg/mL), colistin (1062.5 U/mL), metronidazole (269 μg/mL), ciprofloxacin (156 μg/mL), ampicillin (100 μg/mL) and vancomycin (56 μg/mL)) in drinking water for a period of 9 days. 3 days prior to C. diff. infection, mice received a single dose of clindamycin (10 mg/kg) in a volume of 0.5 mL by oral gavage. After this antibiotic pre-treatment, mice received a challenge of approximately 4.5 log 10 viable spores of strain VPI 10463 (ATCC-43255) administered by oral gavage. Test compounds (bile acid) and placebo were administered in the chow or via oral gavage bid from day −2 through day 4 or 10 or 11. Gavage medium was aqueous, PBS-buffered 0.5% hydroxypropyl methylcellulose (HPMC) suspension. Efficacy of test articles was assessed by enumeration of survival of test animals over 12/15 days following C. diff, challenge and by comparison of mortality, disease severity scores and assessment of body weight against placebo treatment.
Results studies 1, 2 and 3 (using compound Example 1, dosed with 100 mg/kg daily dose via food or via gavage bid): […]

[5] = target: T1, vitamin D receptor (VDR; NR1I1) (Homo sapiens, UniProt P11473); assay: One-hybrid reporter assay for the vitamin D receptor; format: cell-based; settings: result in words
T1 construct: expressed in transfected cells; host or cells: HEK293
T1 sequence (P11473 88-427): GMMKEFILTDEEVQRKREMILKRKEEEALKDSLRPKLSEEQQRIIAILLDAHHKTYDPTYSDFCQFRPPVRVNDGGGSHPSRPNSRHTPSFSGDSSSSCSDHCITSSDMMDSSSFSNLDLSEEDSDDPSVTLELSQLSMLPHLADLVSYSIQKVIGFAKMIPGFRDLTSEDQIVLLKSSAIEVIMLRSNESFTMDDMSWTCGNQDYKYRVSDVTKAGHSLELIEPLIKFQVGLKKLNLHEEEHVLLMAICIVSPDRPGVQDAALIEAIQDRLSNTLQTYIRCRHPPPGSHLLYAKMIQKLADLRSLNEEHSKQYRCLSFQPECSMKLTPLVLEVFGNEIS
Protocol: The vitamin D receptor (VDR; NR1I1) reporter assay was performed by transient co-transfection of HEK293 cells with pCMV-BD (Stratagene #211342) containing the GAL4 DNA-binding domain fused with the ligand binding domain of VDR (Genbank accession no. NP_000378, aa 88-427), pFR-Luc reporter and pRL-CMV reporter (Promega #E2261) using PEI solution (Sigma Aldrich cat #40872-7) in a 96-well plate. Cells were incubated for 4-6 hours, and then cultured in MEM supplemented with 8.7% FCS, Glutamax, NEAA, sodium pyruvate and Pen/Strep in the presence of test compounds for 16-20 hours. Cells were incubated for 4 to 6 hours in 30 μL/well transfection mix in OPTIMEM and then cultured for further 16 to 20 hours after addition of 120 μL MEM supplemented with 8.7% FCS, Glutamax, NEAA, sodium pyruvate and Pen/Strep in the presence of test compounds. Medium was removed and cells were lysed with 1× Passive Lysis Buffer (Promega). Firefly luciferase buffer was then added and firefly luciferase luminescence was read on BMG LUMIstar OMEGA luminescence plate reader. One second later, renilla luciferase buffer was added and renilla luciferase luminescence was read to evaluate cell viability and to be able to normalize for well to well differences in transfection efficiency.

[6] = tested on: C. diff. strain BI1 infection; assay: Recurrence model hamster of C. diff. infection; format: in vivo, male Syrian hamster; settings: for survivors: repeated experiment (FIG. 5), 100% of vehicle animals died within 13 days
Protocol: The efficacy of compounds in suppressing recurrent C. diff infection was assessed in male Syrian hamster. Hamster were made vulnerable to C. diff. infection by administration 1 day prior to C. diff, infection of a single dose of clindamycin (30 mg/kg) by oral gavage. After this antibiotic pre-treatment, mice received a challenge of approximately 1560 viable spores of strain BI1 administered by oral gavage (day 0). After that hamster received 10 mg/kg vancomycin from day 0 until day 5. Test articles (bile acid) and placebo were administered via oral gavage bid from day 6 through day 15. Efficacy of test articles was assessed by enumeration of survival of test animals over 20 days following C. diff. challenge and by comparison of mortality, disease severity scores and assessment of body weight against placebo treatment.

[7] = tested on: C. diff. strain VPI 10463 (ATCC-43255) infection; assay: Recurrence model mouse of C. diff. infection; format: in vivo, C57BL/6 female mice; settings: for survival of the animals: comparison Example 3 against Example 1 (FIG. 3); for Survived / Total Deaths: Day 5 to Day 11, n 10
Protocol: The efficacy of compounds in suppressing recurrent C. diff. infection was assessed in C57BL/6 female mice. Mice were made vulnerable to C. diff. infection by administration of a cocktail of antibiotics (1% glucose, kanamycin (0.5 mg/mL), gentamicin (44 μg/mL), colistin (1062.5 U/mL), metronidazole (269 μg/mL), ciprofloxacin (156 μg/mL), ampicillin (100 μg/mL) and vancomycin (56 μg/mL)) in drinking water for a period of 9 days. 3 days prior to C. diff. infection, mice received a single dose of clindamycin (10 mg/kg) in a volume of 0.5 mL by oral gavage. After this antibiotic pre-treatment, mice received a challenge of approximately 4.5 log 10 viable spores of strain VPI 10463 (ATCC-43255) administered by oral gavage (day 0). After that mice received 50 mg/kg vancomycin from day 0 until day 4. Test articles (bile acid) and placebo were administered via oral gavage bid from day 5 through day 11. Efficacy of test articles was assessed by enumeration of survival of test animals over 15 days following C. diff, challenge and by comparison of mortality, disease severity scores and assessment of body weight against placebo treatment.

[8] = tested on: Clostridium difficile (Clostridioides difficile), Human Strain R20291, Ribotype RT027; assay: MIC on Clostridium difficile human strain R20291, ribotype RT027; format: cell-based; settings: 16 h incubation, OD600
Protocol: Determination of Minimal Inhibitory Concentrations (MICs) of Bile Acid Derivatives on Clostridium difficile (Clostridioides difficile), Human Strain R20291, Ribotype RT027, Reference DSMZ (DSM-27147)
All bacterial culturing steps and MIC experiments were performed under anoxic conditions (95% N2, 5% H2) and 37° C. in an incubator model 2002 that was placed in a Type B vinyl anaerobic chamber, both from Coy Laboratories Products. The strains were maintained as frozen stock cultures in Brain-Heart Infusion broth supplemented with […] and 1% (w/v) L-cysteine (BHIS) containing 40% (v/v) glycerine (Carl Roth GmbH, Cat. #3783.1) at −80° C. Brain-heart infusion broth (Sigma Aldrich, Cat. #53286) with the addition of with 5 g/L yeast extract (Carl Roth GmbH, Cat. #2363.5) was prepared according to the manufacturer's instructions. After heat sterilization, 1 g L-cysteine (Sigma Aldrich, Cat. #C7352) was added that was dissolved in 10 mL of distilled water (H2Odd) and filter sterilized. Medium was placed over night into the anaerobic chamber for degassing. For the MIC-assay cryo-preserved strains were streaked out on BBL™ Columbia CNA Agar with 5% Sheep Blood (BD™, Cat. #221352) and grown for 2-3 d. These plates were kept at rt in the anaerobic chamber for up to two weeks for starting fresh liquid cultures. […]

[9] = Study 1, 0.1% in chow, Day −2 to Day 10
[10] = Study 1, 0.1% in chow, Day −2 to Day 10, n 10
[11] = Study 2, 0.1% in chow, Day −2 to Day 10
[12] = Study 2, 0.1% in chow, Day −2 to Day 10, n 10
[13] = Study 3, 0.1% in chow, Day −2 to Day 4
[14] = Study 3, 0.1% in chow, Day −2 to Day 4, n 10
[15] = Study 3, 0.1% in chow, Day −2 to Day 10
[16] = Study 3, as gavage, Day −2 to Day 4
[17] = Study 3, as gavage, Day −2 to Day 4, n 10
[18] = Study 3, as gavage, Day −2 to Day 10
[19] = Study 2 (so in the source), 0.1% in chow, Day −2 to Day 10
[20] = Study 2, as gavage, Day 5 to Day 11

SMILES: CC(=O)O[C@@H]1CC[C@@]2(C)[C@H](CC[C@@H]3[C@@H]2CC[C@]2(C)[C@@H]([C@H](C)CCC(=O)O)CC[C@@H]32)C1 [5β-cholanic acid 3α-ol acetate]
- effect on C. diff. spore germination (inhibition of germination) [1]: no effect
- effect on C. diff. spore germination (inhibition of germination) ([1]; listed as 3-acetyl-LCA): not present

SMILES: C[C@H](CCC(=O)O)[C@H]1CC[C@H]2[C@@H]3CC[C@@H]4C[C@@H](O)CC[C@]4(C)[C@H]3CC[C@]12C [Example 1, Isolithocholic Acid]
- MIC [2]: 15.6 µM (≈ 5.87 µg/mL)
- ALT-elevation (ALT plasma concentration) [3]: less pronounced
- % Death [4, 9]: 0%
- % mouse days with total clinical score >0 [4, 9]: 30%
- % mouse days with total clinical score >2 [4, 9]: 0%
- Body weight day 12 [4, 9]: 19.0
- Survived [4, 10]: 10
- Total Deaths [4, 10]: 0
- % Death [4, 11]: 0%
- % mouse days with total clinical score >0 [4, 11]: 65%
- % mouse days with total clinical score >2 [4, 11]: 0%
- Body weight day 12 [4, 11]: 20.0
- Survived [4, 12]: 10
- Total Deaths [4, 12]: 0
- % Death [4, 13]: 20%
- Body weight day 12 [4, 13]: 18.1
- Survived [4, 14]: 8
- Total Deaths [4, 14]: 2
- % mouse days with total clinical score >0 [4, 15]: 72%
- % mouse days with total clinical score >2 [4, 15]: 15%
- % Death [4, 16]: 0%
- Body weight day 12 [4, 16]: 15.5 g
- Survived [4, 17]: 10
- Total Deaths [4, 17]: 0
- % mouse days with total clinical score >0 [4, 18]: 30%
- % mouse days with total clinical score >2 [4, 18]: 2%
- animals in the treatment groups survived ([4]; first study (vehicle group 40% died)): 100%
- animals in the treatment groups survived ([4]; second study (vehicle group 30% died)): 100%
- animals in the treatment groups survived ([4]; third study (vehicle group 80% died)): 80%
- Vitamin D agonism [5]: devoid of this Vitamin D agonism
- survivors ([6]; 30 mg/kg): 20%
- survivors ([6]; 100 mg/kg): 40%
- animals protected ([6]; dose-dependent manner (FIG. 5)): 20-40%
- animals in the treatment group died ([6]; first experiment (FIG. 4), vehicle group 20% died, result in words): none
- spores in caecum and colon of surviving animals ([6]; result in words): removed all spores from caecum and colon
- survival of the animals ([7]; 100 mg/kg): 30%
- efficacy (surviving rate), head-to-head comparison of iso-LCA and LCA ([7]; FIG. 2, result in words): higher surviving rate
- % Death ([7]; Study 1, 0.1% in chow, Day 5 to Day 11): 0%
- Survived ([7]; Study 1, 0.1% in chow): 10
- Total Deaths ([7]; Study 1, 0.1% in chow): 0
- Body weight day 12 [7, 9]: 18.4
- % mouse days with total clinical score >0 [7, 19]: 30%
- % mouse days with total clinical score >2 [7, 19]: 1%
- % Death [7, 20]: 0%
- % mouse days with total clinical score >0 [7, 20]: 56%
- % mouse days with total clinical score >2 [7, 20]: 0%
- Body weight day 12 [7, 20]: 16.9 g
- Survived ([7]; Study 2, as gavage): 10
- Total Deaths ([7]; Study 2, as gavage): 0
- animals in the treatment groups died ([7]; vehicle group 70 to 80% died, result in words): none
- MIC [8]: 16 µM (≈ 6.03 µg/mL)

SMILES: [2H]C1([2H])C[C@@]2(C)[C@H](CC[C@@H]3[C@@H]2CC[C@]2(C)[C@@H]([C@H](C)CCC(=O)O)CC[C@@H]32)C([2H])([2H])[C@H]1O [Example 2, 2,2,4,4-d4-Isolithocholic Acid]
- MIC [2]: 7.8 to 15.6 µM (≈ 2.97 to 5.94 µg/mL)

SMILES: [2H]C1([2H])C[C@@]2(C)[C@H](CC[C@@H]3[C@@H]2CC[C@]2(C)[C@@H]([C@H](C)CCC(=O)O)CC[C@@H]32)C([2H])([2H])C1([2H])O (stereo partly shown) [Example 3, 2,2,3,4,4-d5-Isolithocholic Acid]
- MIC [2]: 7.8 to 15.6 µM (≈ 2.98 to 5.95 µg/mL)
- survival of the animals ([7]; 30 mg/kg): 60%

SMILES: [2H][C@]1(O)CC[C@@]2(C)[C@H](CC[C@@H]3[C@@H]2CC[C@]2(C)[C@@H]([C@H](C)CCC(=O)O)CC[C@@H]32)C1 [Example 4, 3-d1-Isolithocholic Acid]
- MIC [2]: 15.6 µM (≈ 5.89 µg/mL)

SMILES: C[C@H](CCC(=O)O)[C@H]1CC[C@H]2[C@@H]3CC[C@H]4C[C@@H](O)CC[C@]4(C)[C@H]3CC[C@]12C [Example 5, 3β-Hydroxy-5α-cholan-24-oic Acid]
- MIC [2]: 3.9 µM (≈ 1.47 µg/mL)
- MIC [8]: 8 µM (≈ 3.01 µg/mL)

SMILES: C[C@H](CCC(=O)O)[C@H]1CC[C@H]2[C@@H]3CC[C@@H]4C[C@H](O)CC[C@]4(C)[C@H]3CC[C@]12C [LCA, lithocholic acid]
- ALT-elevation (ALT plasma concentration) [3]: confirm this described liability of ALT-elevation

SMILES: C[C@H](CCC(=O)O)[C@H]1CC[C@H]2[C@@H]3CC[C@@H]4C[C@@H](O)CC[C@]4(C)[C@H]3C[C@H](O)[C@]12C [iso-DCA, reference compound]
- MIC [2]: > 250 µM
